The nature of data set [1]: Half life in mouse liver microsomes at 1 uM measured after 30 mins in presence of NADPH by LC-MS/MS analysis. It is filed as ADME, Microsome. The settings on record: for t1/2: microsomes, 0.5 h, 1 µM.
Data set [2] deals with Plasmodium falciparum. Briefly: Antimalarial activity against multidrug-resistant Plasmodium falciparum Dd2 measured after 72 hrs by SYBR Green 1 dye based fluorescence assay. Type of data set: functional, organism-based. The settings on record: Dd2, 72 h.
The nature of data set [3]: Half life in mouse at 2 mg/kg, iv by LC-MS analysis. Type of data set: ADME, organism-based. Particulars: in vivo.
The nature of data set [4]: Apparent clearance in mouse at 2 mg/kg, iv by LC-MS analysis. It is filed as ADME, organism-based. Particulars: in vivo, read-out: CL(app).
A short description of data set [5]: Apparent volume of distribution in mouse at 2 mg/kg, iv by LC-MS analysis. Type of data set: ADME, organism-based. Particulars: in vivo, read-out: Vz.
Data set [6] has as its system Plasmodium chabaudi. As to the kind of experiment: Antimalarial activity against chloroquine-resistant Plasmodium chabaudi ASCQ infected in NIH mouse assessed as inhibition of parasitemia at 3 mg/kg, po administered once daily for 4 days starting from 4 hrs post-infection and measured on day 4 by Peter's 4 day test relative to control. It is filed as functional.
In data set [7] the test system is Plasmodium chabaudi. Briefly: Antimalarial activity against chloroquine-resistant Plasmodium chabaudi ASCQ infected in NIH mouse assessed as inhibition of parasitemia at 10 mg/kg, po administered once daily for 4 days starting from 4 hrs post-infection and measured on day 4 by Peter's 4 day test relative to control. Type of data set: functional.
In data set [8] the test system is Plasmodium chabaudi. Briefly: Antimalarial activity against chloroquine-resistant Plasmodium chabaudi ASCQ infected in NIH mouse assessed as inhibition of parasitemia at 30 mg/kg, po administered once daily for 4 days starting from 4 hrs post-infection and measured on day 4 by Peter's 4 day test relative to control. It is filed as functional.
The subject of data set [9] is Plasmodium chabaudi. As to the kind of experiment: Antimalarial activity against chloroquine-resistant Plasmodium chabaudi ASCQ infected in po dosed NIH mouse assessed as inhibition of parasitemia administered starting from 4 hrs post-infection by Peter's 4 day test. Type of data set: functional.
Data set [10] can be described thus: Time at which plasma concentration stays above in-vitro antimalarial IC50 for chloroquine-sensitive Plasmodium falciparum 3D7 in NIH mouse infected with chloroquine-resistant Plasmodium chabaudi ASCQ at 30 mg/kg/day, po. Particulars: in vivo. It is filed as ADME, organism-based.
The target of data set [11] is Voltage-gated inwardly rectifying potassium channel KCNH2 (Homo sapiens, UniProt Q12809).
Description: Inhibition of Tracer Red binding to human ERG expressed in membranes by fluorescence polarization assay
The test system of data set [12] is Plasmodium falciparum. As to the kind of experiment: microbe, parasite or virus in culture. The settings on record: 3D7, 72 h.
Description: (§1) Antimalarial activity against chloroquine-sensitive Plasmodium falciparum 3D7 measured after 72 hrs by SYBR Green 1 dye based fluorescence assay
A short description of data set [13]: Oral bioavailability in mouse at 5 mg/kg by LC-MS analysis. Particulars: in vivo.
Data set [14] deals with Plasmodium falciparum.
Description: as §1
A further data set deals with Beta-secretase 1 (Homo sapiens, UniProt P56817). As to the kind of experiment: Inhibition of recombinant human C-terminal His10-tagged BACE1 using Mca-SEVNLDAEFRK(Dpn)RR-NH2 as substrate measured after 60 mins by TR-FRET assay. Background: In TR-FRET formats the signal depends on donor and acceptor labels being close together.
A further data set concerns the target Plasmepsin II (Plasmodium falciparum, UniProt P46925). As to the kind of experiment: Inhibition of Plasmodium falciparum plasmepsin 2 using EDANS-CO-CH2-CH2-CO-ALERMFLSFP-Dap(DABCYL)OH as substrate measured after 60 mins by fluorescence assay.
The target of another data set is Plasmepsin 4 (Plasmodium falciparum, UniProt Q17SB2). As to the kind of experiment: Inhibition of Plasmodium falciparum plasmepsin 4 using EDANS-CO-CH2-CH2-CO-ALERMFLSFP-Dap(DABCYL)OH as substrate measured after 60 mins by fluorescence assay.
The nature of data set [15]: Intrinsic clearance in mouse liver microsomes at 1 uM measured after 30 mins in presence of NADPH by LC-MS/MS analysis. Type of data set: ADME, Microsome. The settings on record: 0.5 h. On the technique in general: Liver microsomes are a subcellular fraction often used to study metabolism.
The nature of data set [16]: Oral bioavailability in mouse at 5 mg/kg by LC-MS analysis. The settings on record: in vivo. This is another data set of the same source.
The subject of the next data set is HepG2. As to the kind of experiment: Cytotoxicity against human HepG2 cells measured after 72 hrs by PrestoBlue cell viability reagent based assay. Particulars: HepG2, 72 h.
In data set [17] the target is Plasmepsin V (Plasmodium falciparum (isolate 3D7)) (UniProt Q8I6Z5). Briefly: Inhibition of Plasmodium falciparum plasmepsin 5 by knockdown assay.
Data set [18] deals with Plasmodium falciparum. As to the kind of experiment: Inhibition of Plasmodium falciparum plasmepsin 9 by Western blot analysis. For orientation: Immunoblotting shows a protein as a band on a membrane.
Data set [19] concerns Plasmodium falciparum. As to the kind of experiment: Inhibition of Plasmodium falciparum plasmepsin 10 by Western blot analysis.
The nature of data set [20]: Half life in mouse at 1 mg/kg, iv by LC-MS analysis. It is filed as ADME, organism-based. Particulars: in vivo.
A short description of data set [21]: Apparent clearance in mouse at 1 mg/kg, iv by LC-MS analysis. It is filed as ADME, organism-based. The settings on record: in vivo, read-out: CL(app).
A short description of data set [22]: Apparent volume of distribution in mouse at 1 mg/kg, iv by LC-MS analysis. It is filed as ADME, organism-based. Particulars: in vivo, read-out: Vz.

6 molecules from ChEMBL document CHEMBL4390670, “4-Aryl Pyrrolidines as a Novel Class of Orally Efficacious Antimalarial Agents. Part 1: Evaluation of 4-Aryl- N-benzylpyrrolidine-3-carboxamides” (J Med Chem, 2019) can be followed below.

Activity calls are given as the source filed them. The rule behind the calls is not given here. Some results are limits rather than exact numbers.

Sequence of Plasmepsin II (P46925 whole entry): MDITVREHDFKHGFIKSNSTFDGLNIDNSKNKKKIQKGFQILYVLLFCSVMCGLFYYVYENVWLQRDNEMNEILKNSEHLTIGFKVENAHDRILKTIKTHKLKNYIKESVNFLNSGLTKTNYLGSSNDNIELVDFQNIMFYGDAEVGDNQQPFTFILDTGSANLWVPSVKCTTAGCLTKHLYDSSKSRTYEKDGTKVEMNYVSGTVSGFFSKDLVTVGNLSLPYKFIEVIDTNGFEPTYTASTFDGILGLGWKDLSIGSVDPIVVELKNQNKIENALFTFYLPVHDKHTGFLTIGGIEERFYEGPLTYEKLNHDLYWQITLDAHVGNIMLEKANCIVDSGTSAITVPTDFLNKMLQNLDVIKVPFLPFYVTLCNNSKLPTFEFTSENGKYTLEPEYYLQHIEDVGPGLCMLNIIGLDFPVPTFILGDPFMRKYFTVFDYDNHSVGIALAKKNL
Sequence of Beta-secretase 1 (P56817 whole entry): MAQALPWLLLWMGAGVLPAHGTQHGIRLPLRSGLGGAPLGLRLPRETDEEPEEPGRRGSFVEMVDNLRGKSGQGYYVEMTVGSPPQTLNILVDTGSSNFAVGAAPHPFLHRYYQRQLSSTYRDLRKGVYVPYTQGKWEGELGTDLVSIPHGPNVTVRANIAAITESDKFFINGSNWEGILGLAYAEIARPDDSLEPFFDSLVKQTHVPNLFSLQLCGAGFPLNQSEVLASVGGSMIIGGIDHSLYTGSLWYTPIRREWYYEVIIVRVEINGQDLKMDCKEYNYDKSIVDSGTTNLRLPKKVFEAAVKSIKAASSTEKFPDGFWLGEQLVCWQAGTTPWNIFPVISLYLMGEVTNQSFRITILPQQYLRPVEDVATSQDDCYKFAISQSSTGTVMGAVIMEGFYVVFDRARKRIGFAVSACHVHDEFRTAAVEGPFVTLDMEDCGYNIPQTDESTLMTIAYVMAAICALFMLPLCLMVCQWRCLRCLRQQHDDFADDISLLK
Sequence of Voltage-gated inwardly rectifying potassium channel KCNH2 (Q12809 whole entry): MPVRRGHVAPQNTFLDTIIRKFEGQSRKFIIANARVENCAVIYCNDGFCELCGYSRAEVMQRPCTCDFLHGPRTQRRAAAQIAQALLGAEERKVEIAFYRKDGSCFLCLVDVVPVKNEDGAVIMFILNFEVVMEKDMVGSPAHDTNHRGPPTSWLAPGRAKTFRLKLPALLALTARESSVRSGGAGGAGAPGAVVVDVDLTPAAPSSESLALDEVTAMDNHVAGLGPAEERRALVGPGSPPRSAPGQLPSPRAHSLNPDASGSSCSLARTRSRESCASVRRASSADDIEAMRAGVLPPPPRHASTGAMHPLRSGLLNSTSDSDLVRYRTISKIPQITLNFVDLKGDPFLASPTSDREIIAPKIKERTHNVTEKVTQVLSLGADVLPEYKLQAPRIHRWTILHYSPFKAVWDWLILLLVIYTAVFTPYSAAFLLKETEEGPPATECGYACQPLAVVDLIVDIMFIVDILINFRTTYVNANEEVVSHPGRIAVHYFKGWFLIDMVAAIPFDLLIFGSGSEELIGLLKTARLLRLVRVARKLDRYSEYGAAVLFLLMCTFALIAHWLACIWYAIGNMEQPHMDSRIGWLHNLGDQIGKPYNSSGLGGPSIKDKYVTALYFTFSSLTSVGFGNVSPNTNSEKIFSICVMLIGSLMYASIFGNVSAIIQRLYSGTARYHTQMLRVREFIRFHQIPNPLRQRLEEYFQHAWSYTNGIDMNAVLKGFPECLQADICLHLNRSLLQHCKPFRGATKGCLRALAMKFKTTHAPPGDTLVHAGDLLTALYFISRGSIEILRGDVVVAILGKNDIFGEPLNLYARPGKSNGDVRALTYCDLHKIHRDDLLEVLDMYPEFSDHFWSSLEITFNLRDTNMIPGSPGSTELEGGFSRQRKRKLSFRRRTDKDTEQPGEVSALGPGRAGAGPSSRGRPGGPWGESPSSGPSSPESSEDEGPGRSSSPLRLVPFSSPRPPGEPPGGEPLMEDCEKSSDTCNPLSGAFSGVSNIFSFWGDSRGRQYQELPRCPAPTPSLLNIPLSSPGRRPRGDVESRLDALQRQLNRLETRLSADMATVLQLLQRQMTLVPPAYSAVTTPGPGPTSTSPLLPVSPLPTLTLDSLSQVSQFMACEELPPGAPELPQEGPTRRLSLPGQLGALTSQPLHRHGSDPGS
Sequence of Plasmepsin 4 (Q17SB2 whole entry): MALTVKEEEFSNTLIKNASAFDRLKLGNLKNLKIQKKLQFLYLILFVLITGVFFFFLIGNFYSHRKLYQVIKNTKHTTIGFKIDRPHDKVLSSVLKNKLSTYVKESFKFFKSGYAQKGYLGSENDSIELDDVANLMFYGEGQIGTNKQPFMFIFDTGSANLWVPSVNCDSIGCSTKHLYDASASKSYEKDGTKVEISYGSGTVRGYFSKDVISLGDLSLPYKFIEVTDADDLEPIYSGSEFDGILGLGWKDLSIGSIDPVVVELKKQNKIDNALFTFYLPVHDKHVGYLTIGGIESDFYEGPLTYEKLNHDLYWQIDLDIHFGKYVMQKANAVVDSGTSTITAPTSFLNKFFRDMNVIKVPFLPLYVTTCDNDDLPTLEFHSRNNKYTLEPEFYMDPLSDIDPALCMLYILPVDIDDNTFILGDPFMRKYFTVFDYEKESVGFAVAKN
Sequence of Plasmepsin V (Plasmodium falciparum (isolate 3D7)) (Q8I6Z5 whole entry, looked up): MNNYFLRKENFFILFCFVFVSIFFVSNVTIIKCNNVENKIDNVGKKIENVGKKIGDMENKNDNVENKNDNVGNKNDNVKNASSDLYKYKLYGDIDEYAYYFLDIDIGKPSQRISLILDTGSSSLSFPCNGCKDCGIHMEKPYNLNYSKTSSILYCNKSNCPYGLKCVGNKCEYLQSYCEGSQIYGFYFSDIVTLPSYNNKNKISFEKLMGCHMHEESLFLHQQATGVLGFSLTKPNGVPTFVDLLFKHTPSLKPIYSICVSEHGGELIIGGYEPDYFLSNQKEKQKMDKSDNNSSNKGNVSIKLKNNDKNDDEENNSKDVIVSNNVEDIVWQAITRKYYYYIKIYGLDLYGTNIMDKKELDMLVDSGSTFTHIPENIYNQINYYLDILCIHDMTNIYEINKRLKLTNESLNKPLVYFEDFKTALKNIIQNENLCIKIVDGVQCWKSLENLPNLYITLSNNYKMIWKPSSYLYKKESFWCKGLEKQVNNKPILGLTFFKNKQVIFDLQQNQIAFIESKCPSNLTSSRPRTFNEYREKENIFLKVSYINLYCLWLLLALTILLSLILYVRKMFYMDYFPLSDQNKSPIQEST

The term IC50 denotes the concentration at which inhibition is half-maximal. The half-life is how long it takes for the measured level to halve. Broadly, the inhibition in vivo is the drop in the measured response relative to a control, in per cent. The term bioavailability denotes the share of a dose that reaches the circulation, judged against a reference dose that is usually intravenous. High values mean good availability, low ones poor availability. Consider `C[C@H](NC(=O)[C@H]1CNC[C@@H]1c1ccc(C(F)(F)F)cc1)c1ccc(N(C)C)cc1`, for which the t1/2 in data set [1] stood at 0.633 h. Also, the results for the IC50 (in the data set with Plasmodium falciparum [2]; in [11]; in the data set with Plasmodium falciparum [12]) were 0.021 µM, 32 µM and 0.046 to 0.051 µM, respectively. The same molecule showed a half-life in data set [3] of 4.4 h. The clearance in data set [4] stood at 3.3 mL/min/kg. In data set [5], the Vd was found to be 1.3 L/kg. In addition, the inhibition in vivo at 3 mg/kg in the data set with Plasmodium chabaudi [6] is 22.4%. In the data set with Plasmodium chabaudi [7], the inhibition in vivo at 10 mg/kg came out at 75.2%. In addition, the inhibition in vivo at 30 mg/kg with Plasmodium chabaudi [8] turned out to be 98.7%. Moreover, in the data set on Plasmodium chabaudi [9], the ED90 is 20 mg/kg/day. In the data set on Plasmodium chabaudi [9], the ED99 was determined as 30 mg/kg/day. The molecule also returned a Time in data set [10] of 24 h. The same molecule came in with a bioavailability in [13] of 32%.
In turn, `CN(C)c1ccc(CNC(=O)[C@H]2CNC[C@@H]2c2ccc(C(F)(F)F)nc2)cc1` displayed an IC50 in the data set on Plasmodium falciparum [14] of 0.116 µM.
`CN(C)c1ccc(CNC(=O)[C@H]2CNC[C@@H]2c2ccc(C(F)(F)F)nc2)cc1` (racemic): in data set [1], the t1/2 came to 1.17 h. The half-inhibitory concentration (IC50) at Beta-secretase 1 is > 10 µM; against Plasmepsin II it was > 10 µM; against Plasmepsin 4, > 10 µM; in [11], 21.7 µM; in the data set on Plasmodium falciparum [12], 0.23 to 0.25 µM. The “Intrinsic clearance (CLint)” value in data set [15] was determined as 3.1 µL/min/mg. Moreover, in [3], the half-life is 6.6 h. In addition, the clearance in data set [4] was determined as 5.9 mL/min/kg. In addition, the Vd in data set [5] came to 3.2 L/kg. Also, the bioavailability in [16] came to 13%.
In the case of `COc1ccc(CNC(=O)[C@@H]2CNC[C@H]2c2ccc(C(F)(F)F)cc2)cc1` (racemic), the IC50 is 33 µM in the data set on HepG2 and 0.36 to 0.385 µM with Plasmodium falciparum [12]. Moreover, the half-life at 1 µM in data set [1] (liver microsomes) came to 0.617 h. Further, the inhibition result (in data set [17]; in the data set on Plasmodium falciparum [18]; in the data set on Plasmodium falciparum [19]) was “inactive” in each case.
For the molecule `Cc1ccc(CNC(=O)[C@@H]2CNC[C@H]2c2ccc(C(F)(F)F)cc2)cc1` (racemic), the t1/2 in [1] came out at 2.68 h. The IC50 is > 10 µM on Beta-secretase 1, > 10 µM against Plasmepsin II, > 10 µM against Plasmepsin 4 and 0.46 µM in the data set with Plasmodium falciparum [12]. Moreover, the “Intrinsic clearance (CLint)” value in [15] worked out at 1.4 µL/min/mg. The half-life in [20] was 1.7 h. Moreover, the clearance in data set [21] was 52 mL/min/kg. Further, the Vd in [22] amounted to 7.3 L/kg.
As for `CCN(CC)CCCC(C)Nc1ccnc2cc(Cl)ccc12` (configuration not stated) [CHLOROQUINE], the inhibition in vivo at 10 mg/kg with Plasmodium chabaudi [7] is 95%.
